Results from patent US8445492B2, “Method for inhibiting growth of cancer cells and cell telomere and diseases of cell proliferation by using heteroannelated anthraquinone derivative compounds” (National Defense Medical Center, priority 2008, dated 2013).
Where two headings read alike, the source gives them in different places.

Key:
NCI-H23 [1] = test system: NCI-H23
NCI-H460 [2] = test system: NCI-H460
HOP-62 [3] = test system: HOP-62
EKVX [4] = test system: EKVX
NCI-H226 [5] = test system: NCI-H226
NCI-H522 [6] = test system: NCI-H522
HOP-92 [7] = test system: HOP-92
NCI-H460 [8] = test system: NCI-H460; remark: listed apart in the source
NCI-H522 [9] = test system: NCI-H522; remark: listed apart in the source
NCI-H226 [10] = test system: NCI-H226; remark: listed apart in the source
EKVX [11] = test system: EKVX; remark: listed apart in the source
A549/ATCC [12] = test system: A549/ATCC
HOP-92 [13] = test system: HOP-92; remark: listed apart in the source
HOP-62 [14] = test system: HOP-62; remark: listed apart in the source
A549/ATCC [15] = test system: A549/ATCC; remark: listed apart in the source
NCI-H23 [16] = test system: NCI-H23; remark: listed apart in the source

## O=C1c2ccccc2C(=O)c2c1ccc1nccnc21 [TABLE 5-2]
NCI-H23 [1]
  GI50: 12 µM
  TGI: 7.03E−5
NCI-H23 [1]; Log10 Concentration −4.0
  Percent Growth: −10%
NCI-H23 [1]; Log10 Concentration −5.0
  Percent Growth: 55%
NCI-H23 [1]; Log10 Concentration −6.0
  Percent Growth: 84%
NCI-H23 [1]; Log10 Concentration −7.0
  Percent Growth: 87%
NCI-H23 [1]; Log10 Concentration −8.0
  Percent Growth: 92%
NCI-H460 [2]
  GI50: 2.01 µM
  TGI: 2.69E−5
NCI-H460 [2]; Log10 Concentration −4.0
  Percent Growth: −22%
NCI-H460 [2]; Log10 Concentration −5.0
  Percent Growth: 17%
NCI-H460 [2]; Log10 Concentration −6.0
  Percent Growth: 65%
NCI-H460 [2]; Log10 Concentration −7.0
  Percent Growth: 95%
NCI-H460 [2]; Log10 Concentration −8.0
  Percent Growth: 98%
HOP-62 [3]
  CC50: > 100 µM
EKVX [4]
  CC50: > 100 µM
NCI-H226 [5]
  CC50: > 100 µM
NCI-H522 [6]
  GI50: 4.64 µM
  TGI: 3.25E−5
NCI-H522 [6]; Log10 Concentration −4.0
  Percent Growth: −33%
NCI-H522 [6]; Log10 Concentration −5.0
  Percent Growth: 35%
NCI-H522 [6]; Log10 Concentration −6.0
  Percent Growth: 81%
NCI-H522 [6]; Log10 Concentration −7.0
  Percent Growth: 86%
NCI-H522 [6]; Log10 Concentration −8.0
  Percent Growth: 89%
HOP-92 [7]
  CC50: > 100 µM
NCI-H460 [8]
  CC50: > 100 µM
NCI-H522 [9]
  CC50: > 100 µM
NCI-H226 [10]
  GI50: 16.6 µM
  TGI: 9.52E−5
NCI-H226 [10]; Log10 Concentration −4.0
  Percent Growth: −1%
NCI-H226 [10]; Log10 Concentration −5.0
  Percent Growth: 64%
NCI-H226 [10]; Log10 Concentration −6.0
  Percent Growth: 73%
NCI-H226 [10]; Log10 Concentration −7.0
  Percent Growth: 81%
NCI-H226 [10]; Log10 Concentration −8.0
  Percent Growth: 86%
EKVX [11]
  GI50: 3.45 µM
  TGI: 7.21E−5
EKVX [11]; Log10 Concentration −4.0
  Percent Growth: −4%
EKVX [11]; Log10 Concentration −5.0
  Percent Growth: 25%
EKVX [11]; Log10 Concentration −6.0
  Percent Growth: 79%
EKVX [11]; Log10 Concentration −7.0
  Percent Growth: 89%
EKVX [11]; Log10 Concentration −8.0
  Percent Growth: 101%
A549/ATCC [12]
  CC50: > 100 µM
HOP-92 [13]
  GI50: 22.5 µM
  TGI: >1.00E−4
HOP-92 [13]; Log10 Concentration −4.0
  Percent Growth: 8%
HOP-92 [13]; Log10 Concentration −5.0
  Percent Growth: 73%
HOP-92 [13]; Log10 Concentration −6.0
  Percent Growth: 78%
HOP-92 [13]; Log10 Concentration −7.0
  Percent Growth: 83%
HOP-92 [13]; Log10 Concentration −8.0
  Percent Growth: 95%
HOP-62 [14]
  GI50: 5.64 µM
  TGI: >1.00E−4
HOP-62 [14]; Log10 Concentration −4.0
  Percent Growth: 3%
HOP-62 [14]; Log10 Concentration −5.0
  Percent Growth: 40%
HOP-62 [14]; Log10 Concentration −6.0
  Percent Growth: 81%
HOP-62 [14]; Log10 Concentration −7.0
  Percent Growth: 82%
HOP-62 [14]; Log10 Concentration −8.0
  Percent Growth: 92%
A549/ATCC [15]
  GI50: 4.53 µM
  TGI: >1.00E−4
A549/ATCC [15]; Log10 Concentration −4.0
  Percent Growth: 3%
A549/ATCC [15]; Log10 Concentration −5.0
  Percent Growth: 36%
A549/ATCC [15]; Log10 Concentration −6.0
  Percent Growth: 77%
A549/ATCC [15]; Log10 Concentration −7.0
  Percent Growth: 95%
A549/ATCC [15]; Log10 Concentration −8.0
  Percent Growth: 93%
NCI-H23 [16]
  CC50: > 100 µM
